Data as given in US5869699A, “1,2 chemiluminescent dioxetanes of improved performance” (Tropix, Inc., priority 1997, dated 1999).
Counter-ions that a name gives are not always drawn.

How the values were obtained:
Alkaline phosphatase [1] = assay: Chemiluminescence half-life of dephosphorylated dioxetane; type: biochemical; conditions: for T1/2 (chemiluminescence half-life): 0.004 mM dioxetane, 30° C., 0.1M diethanolamine, 1 mM MgCl2, pH 10, alkaline phosphatase 1.05×10^-9 M, no enhancer; for t1/2 (chemiluminescence half-life): in a buffer solution; for T1/2 (chemiluminescence half-life), with Sapphire II enhancer: Sapphire II enhancer: 0.1M diethanolamine, 1 mM MgCl2, 10% polyvinylbenzyltributyl ammonium chloride at 1 mg/mL
Description: Determination of the Chemiluminescence Half-Life of Dephosphorylated Dioxetane.
A 1 mL aliquot of each dioxetane (0.004 mM) was equilibrated to 30° C. in 0.1M diethanolamine, 1 mM MgCl2, pH 10. Alkaline phosphatase (at final concentration of 1.05×10^-9 M) was added to the test tube and the chemiluminescent signal kinetics was measured in a Turner TD-20E luminometer for 10 to 20 minutes. The half-life was calculated from the plot of log RLU versus time. For TFE and TFE-ADP-Star, the chemiluminescent half-life was also determined in the presence of Sapphire II enhancer (in 0.1M diethanolamine, 1 mM MgCl2, 10% polyvinylbenzyltributyl ammonium chloride at 1 mg/mL).

[2] = system: biotinylated pBR322(35 mer); assay: Detection of biotinylated pBR322 (35 mer) on nylon membrane; conditions: for DNA CONC. (detection sensitivity): 5 minute exposure, 0.25 mM dioxetane, nylon membrane, pH 9.5 for CSPD and TFE, pH 9.0 for CDP-Star and TFE-ADP-Star
Source text: Detection of Biotinylated pBR322(35 mer) on Nylon Membrane
Serial dilutions of biotinylated pBR322 (35 mer) were spotted onto strips of Tropilon-Plus nylon membrane. Spots correspond to 210 pg, 70 pg, 23.3 pg, 7.7 pg, 2.6 pg, 0.86 pg, 0.29 pg, 0.10 pg, 32.0 fg, 10.7 fg, 3.6 fg and 1.2 fg of biotinylated pBR322(35 mer). After spotting, the DNA was cross-linked to the membrane by UV fixation, the membranes were blocked with 0.2% I-Block, 5% sodium dodecyl sulfate (SDS) in phosphate buffered saline(PBS) (Blocking Buffer I), incubated with a 1-5000 dilution of Avidx-AP in Blocking Buffer I for 30 minutes, washed twice with 5% SDS in PBS for 5 minutes, rinsed twice with Assay Buffer, incubated for 5 minutes in 0.25 mM dioxetane phosphate in Assay Buffer and exposed to X-ray film for 5 minutes. The membrane strips incubated with CSPD, and TFE were rinsed with 0.1M diethanolamine, 1 mM MgCl2, pH 9.5 and those incubated with CDP-Star, and TFE-ADP-Star were rinsed with the same buffer at pH 9.0. The Assay Buffer for CSPD and TFE was 0.1M diethanolamine, 1 mM MgCl2, pH 9.5 and for CD-Star, and TFE-ADP-Star was the same buffer at pH 9.0.

Alkaline phosphatase [3] = assay: Peak light intensity of dephosphorylated dioxetanes; type: biochemical; conditions: for PEAK INTENSITY: 0.004 mM dioxetane, 30° C., 0.1M diethanolamine, 1 mM MgCl2, pH 10, alkaline phosphatase 1.05×10^-9 M
Description: Determination of the Peak Light Intensity of Dephosphorylated Dioxetanes
A 0.5 mL aliquot of dioxetane (0.004 mM) was equilibrated to 30° C. in 0.1M diethanolamine, 1 mM MgCl2, pH 10. Alkaline phosphatase (final concentration of 1.05×10^-9 M) was added to the tube and the chemiluminescent signal was measured in a Turner TD-20E luminometer for 10 to 20 minutes.

Alkaline phosphatase [4] = assay: Enzymatic triggering of the prepared dioxetane with alkaline phosphatase to produce light; type: biochemical
Description: 480 milligrams of chromatographed disodium 2-chloro-5-(2,2,2-trifluoroethoxy tricyclo[3.3.1.1^3,7 ]dec-2-ylidenemethyl)phenyl phosphate was placed in a tube and wet down with anhydrous methanol, 4 mL. Chloroform, 40 mL, was added to obtain a solution. A solution of tetraphenylporphine (TPP), 6 milligrams in 3 mL chloroform, was then added to yield a pink-purple reaction mixture. The solution was cooled in an ice bath while sparging with oxygen through a Pasteur pipette for 5 minutes. The gas flow was continued while the solution was irradiated with a 400 watt sodium vapor lamp which had been filtered with a 3.0 mil thickness of DuPont Kapton film. After 40 minutes, a small sample was blown down and dissolved in water which contained 0.1% NaHCO3. Analytical HPLC, under conditions described above for the starting material, indicated a new product which eluted at 12.1 minutes. The starting material, eluting at 12.5 minutes, was present in just a trace amount. The reaction was stripped of solvents and pumped to yield a dark red foam. This was dissolved in 80 mL water which contained 5 drops of 0.5M NaOH. The solution was filtered to remove insolubles, and was preparatively chromatographed on a one inch PLRP-S column (Polymer Laboratories) using an acetonitrile/water gradient. The product peak was shaved on the front and in the back, collecting only the middle cut. […]

[5] = nylon membrane blotting, TABLE III

SMILES | T1/2 (chemiluminescence half-life) (Alkaline phosphatase [1]) [min] | DNA CONC. (detection sensitivity) [2] [PICOGRAMS] | PEAK INTENSITY (Alkaline phosphatase [3]) [RLU] | also measured
COC1(c2ccc(Cl)c(OP(=O)(O)O)c2)OOC12C1CC3CC2CC(Cl)(C3)C1 (stereo not shown) [CDP-Star] | 1.2 | 0.86 | 863 | 
COC1(c2cccc(OP(=O)(O)O)c2)OOC12C1CC3CC(C1)CC2C3 (stereo not shown) [AMPPD, 3-(2'-spiroadamantane)-4-methoxy-4-(3"-phosphoryloxy)-phenyl-1,2-dioxetanedisodium salt] |  |  |  | t1/2 (chemiluminescence half-life) (Alkaline phosphatase [1]): 2.1 min
O=P(O)(O)Oc1cccc(C2(OCC(F)(F)F)OOC23C2CC4CC(C2)CC3C4)c1 (stereo not shown) [TFE] | 0.9 | 7.7 | 282 | T1/2 (chemiluminescence half-life), with Sapphire II enhancer (Alkaline phosphatase [1]): 15.5 min; t1/2 (chemiluminescence half-life) (Alkaline phosphatase [1]): 0.9 min; t1/2 in the presence of enhancers (Alkaline phosphatase [1]; in the presence of enhancers): 15 min
COC1(c2cccc(OP(=O)(O)O)c2)OOC12C1CC3CC2CC(Cl)(C3)C1 (stereo not shown) [CSPD] | 0.6 | 23.3 | 200 | half-life compared with TFE (Alkaline phosphatase [1]; by itself in a buffer): shorter than TFE
COC1(c2ccc(Cl)c(OP(=O)(O)O)c2)OOC12C1CC3CC(C1)CC2C3 (stereo not shown) [ADP-Star] | 2.7 |  | 682 | 
O=P([O-])([O-])Oc1cccc(C2(OCC(F)(F)F)OOC23C2CC4CC3CC(Cl)(C4)C2)c1.[Na+].[Na+] (stereo not shown) [TFE-CDP-Star, Disodium 3-(4-(2,2,2-trifluoroethoxy)spiro{1,2-dioxetane-3,2'-(5'-chloro)tricyclo [3.3.1,1^3,7]decan}-4-yl)phenyl phosphate] |  |  |  | duration of burst of light on addition of excess alkaline phosphatase (Alkaline phosphatase [4]; HPLC peak of basified reaction sample, pH 10 aqueous diethanolamine buffer, excess alkaline phosphatase): 3 min
O=P(O)(O)Oc1cc(C2(OCC(F)(F)F)OOC23C2CC4CC(C2)CC3C4)ccc1Cl (stereo not shown) [TFE-ADP-Star, Disodium 2-chloro-5-(4-(2,2,2-trifluoroethoxy)spiro{1,2-dioxetane-3,2'-tricyclo[3.3.1.1^3,7]decan}-4-yl-phenyl phosphate] | 2.0 | 0.0107 | 390 | T1/2 (chemiluminescence half-life), with Sapphire II enhancer (Alkaline phosphatase [1]): 5.0 min; amount of DNA detected relative to TFE [2, 5]: close to one thousand times less DNA than TFE; sensitivity compared with CDP-Star [2, 5]: more sensitive than CDP-Star; light production on enzymatic triggering with alkaline phosphatase (Alkaline phosphatase [4]): produce light; chemiluminescent signal intensity / relative emission efficiency (Alkaline phosphatase [3]; comment on TABLE II): generates a higher intensity signal
